Experimental data reported in patent US9957264B2 (Merck Sharp & Dohme Corp., priority 2013, dated 2018).

Target: JAK1 (recombinant purified GST-tagged catalytic domain) (Homo sapiens (Human), UniProt P23458)
Test: Jak Biochemical HTRF Assay (JAK1)
Details: [ATP] 31.8 μM
Protocol: Jak Biochemical HTRF Assay Protocol
The ability of compounds to inhibit the activity of JAK1, JAK2, JAK3, and Tyk2 was measured using a recombinant purified GST-tagged catalytic domain for each enzyme (Invitrogen JAK1 #M4290, JAK2 #M4290, JAK3 #M4290, Tyk2 #M4290) in an HTRF format biochemical assay. The reactions employed a common peptide substrate, LCB-[…]-NH2 (in-house). The basic assay protocol is as follows: First, 250 nL of diluted compounds in DMSO were dispensed into the wells of a dry 384-well Black plate (Greiner #781076) using a Labcyte Echo 555 acoustic dispenser. Subsequent reagent additions employed an Agilent Bravo. […] After equilibration, 2 μL of 10×ATP in 1× assay buffer was added to initiate the kinase reaction and the plates were shaken and then incubated at room temperature for 120 minutes. At the end of the incubation, 20 μL of 2× stop buffer (streptavidin-Dylight 650 (Thermo #84547B/100 mL), Eu-tagged pY20 antibody (Perkin Elmer #AD0067), EDTA, HEPES, and Triton) was added to quench the reaction. Plates were shaken and centrifuged and then incubated 60 minutes at room temperature and then read on a Perkin Elmer Envision (λex=337 nm, λem=665 and 615 nm, TRF delay time=20 μs). HTRF signal=10,000*665 nm reading/615 nm reading. After normalization to untreated controls, the percent inhibition of the HTRF signal at each compound concentration was calculated. The plot of percent inhibition versus the log of compound concentration was fit with a 4-parameter dose response equation to calculate IC50 values.
Final reaction conditions were:
Examples of the instant invention were evaluated in JAK1 and JAK2 in vitro binding assays as described above. The following table tabulates the JAK1 IC50 values and JAK2 IC50 values disclosed for the instant invention.

Sequence of JAK1 (recombinant purified GST-tagged catalytic domain) (P23458 875-1153): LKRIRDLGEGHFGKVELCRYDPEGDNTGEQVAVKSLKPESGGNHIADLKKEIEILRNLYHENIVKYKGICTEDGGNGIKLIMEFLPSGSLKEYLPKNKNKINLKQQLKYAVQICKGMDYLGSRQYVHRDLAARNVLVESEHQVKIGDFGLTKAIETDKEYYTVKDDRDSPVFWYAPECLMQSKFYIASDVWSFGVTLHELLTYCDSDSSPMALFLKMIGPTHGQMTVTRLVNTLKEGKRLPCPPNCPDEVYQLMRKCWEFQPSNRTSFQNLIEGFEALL

SMILES | IC50
CN(C)S(=O)(=O)c1ccc(Nc2nn([C@@]3(CC#N)CCCC[C@H]3F)c3cc[nH]c(=O)c23)cc1 [Example 5-234, 4-({1-[(1R,2R)-1-(cyanomethyl)-2-fluorocyclohexyl]-4-oxo-4,5-dihydro-1H-pyrazolo [4,3-c]pyridin-3-yl}amino)-N,N-dimethyl-benzenesulfonamide] | 0.63 nM
CN(C)S(=O)(=O)c1ccc(Nc2nn([C@]3(CC#N)CC[C@H](N4CC(F)C4)CC3)c3cc[nH]c(=O)c23)cc1 [Example 18-30, Cis 4-((1-(1-(cyanomethyl)-4-(3-fluoroazetidin-1-yl)cyclohexyl)-4-oxo-4,5-dihydro-1H-pyrazolo[4,3-c]pyridin-3-yl)amino)-N,N-dimethylbenzenesulfonamide] | 2.62 nM
CS(=O)(=O)c1ccc(Nc2nn(C3(CC#N)CCN(c4ccc(I)cn4)CC3)c3cc[nH]c(=O)c23)cc1 [Example 15-7, 2-(1-(5-iodopyridin-2-yl)-4-(3-((4-(methylsulfonyl)phenyl)amino)-4-oxo-4,5-dihydro-1H-pyrazolo[4,3-c]pyridin-1-yl)piperidin-4-yl)acetonitrile] | 0.17 nM
CC(C)(C)OC(=O)N1CCC(CC#N)(n2nc(Nc3cccc(S(C)(=O)=O)c3)c3c(=O)[nH]ccc32)CC1 [Example 5-13, tert-butyl 4-(cyanomethyl)-4-(3-{[3-(methylsulfonyl)phenyl]amino}-4-oxo-4,5-dihydro-1H-pyrazolo[4,3-c]pyridin-1-yl)piperidine-1-carboxylate] | 0.5 nM
CN(C)S(=O)(=O)c1ccc(Nc2nn(C3(CC#N)CCN(Cc4cccc5[nH]ccc45)CC3)c3cc[nH]c(=O)c23)cc1 [Example 8-16, 4-({1-[4-(cyanomethyl)-1-(1H-indol-4-ylmethyl)piperidin-4-yl]-4-oxo-4,5-dihydro-1H-pyrazolo[4,3-c]pyridin-3-yl}amino)-N,N-dimethylbenzenesulfonamide] | 1.54 nM
COC(=O)c1ccc(Nc2nn(C3(CC#N)CN(C(=O)OC(C)(C)C)C3)c3cc[nH]c(=O)c23)cc1 [Example 4-2, tert-butyl 3-(cyanomethyl)-3-(3((4(methoxycarbonyl)phenyl)amino)-4-oxo-4,5-dihydro-1H-pyrazolo[4,3-c]pyridin-1-yl)azetidine-1-carboxylate] | 2.47 nM
N#CC[C@]1(n2nc(Nc3ccc4c(c3)CN(C3CCNCC3)S4(=O)=O)c3c(=O)[nH]ccc32)CCOC[C@H]1F (single isomer, unassigned) [Example 5-271, 2-[(3S,4S or 3R,4R)-4-(3-{[1,1-dioxo-2-(piperidin-4-yl)-3H-1,2-benzothiazol-5-yl]amino}-4-oxo-5H-pyrazolo[4,3-c]pyridin-1-yl)-3-fluorooxan-4-yl]acetonitrile] | 0.25 nM
CN(C)S(=O)(=O)c1ccc(Nc2nn(C3(CC#N)CCCCC3)c3cc[nH]c(=O)c23)cc1 [Example 5-79, 4-(1-(1-(cyanomethyl)cyclohexyl)-4-oxo-4,5-dihydro-1H-pyrazolo[4,3-c]pyridin-3-ylamino)-N,N-dimethylbenzene-sulfonamide] | 0.78 nM
CC1(C)OC(=O)c2ccc(Nc3nn(C4(CC#N)CCCC4)c4cc[nH]c(=O)c34)cc21 [Example 5-126, (1-{3-[(3,3-dimethyl-1-oxo-1,3-dihydro-2-benzofuran-5-yl)amino]-4-oxo-4,5-dihydro-1H-pyrazolo[4,3-c]pyridin-1-yl}cyclopentyl)acetonitrile] | 4.53 nM
CC(C)(C)OC(=O)[C@@H]1CC[C@@](CC#N)(n2nc(Nc3ccc(C(O)(C(C)(C)C)C(F)(F)F)cc3)c3c(=O)[nH]ccc32)CO1 (single isomer, unassigned) [Example 5-167, (2S,5S)-tert-butyl 5-(cyanomethyl)-5-(4-oxo-3-((4-((S or R)-1,1,1-trifluoro-2-hydroxy-3,3-dimethylbutan-2-yl)phenyl)amino)-4,5-dihydro-1H-pyrazolo[4,3-c]pyridin-1-yl)tetrahydro-2H-pyran-2-carboxylate] | 0.83 nM
Cc1cc(Nc2nn([C@]3(CC#N)CC[C@@H](C(=O)OC(C)(C)C)OC3)c3cc[nH]c(=O)c23)ccc1C(=O)N1CCSC(C)C1 (single isomer, unassigned) [Example 5-159, (2S,5S)-tert-butyl 5-(cyanomethyl)-5-(3-((3-methyl-4-((S or R)-2-methylthiomorpholine-4-carbonyl)phenyl)amino)-4-oxo-4,5-dihydro-1H-pyrazolo[4,3-c]pyridin-1-yl)tetrahydro-2H-pyran-2-carboxylate] | 0.24 nM
CC1(C)Cc2cc(Nc3nn([C@]4(CC#N)CCCOC4)c4cc[nH]c(=O)c34)ccc2C1(O)C(F)(F)F (single isomer, unassigned) [Example 5-119, 2-((S)-3-(3-(((S or R)-1-hydroxy-2,2-dimethyl-1-(trifluoromethyl)-2,3-dihydro-1H-inden-5-yl)amino)-4-oxo-4,5-dihydro-1H-pyrazolo[4,3-c]pyridin-1-yl)tetrahydro-2H-pyran-3-yl)acetonitrile] | 0.15 nM
CC(C)(C)OC(=O)[C@H]1CC[C@](CC#N)(n2nc(Nc3ccc4c(c3)CN(C(C)(C)C)S4(=O)=O)c3c(=O)[nH]ccc32)CO1 [Example 5-42, (2R,5R)-tert-butyl 5-(3-((2-(tert-butyl)-1,1-dioxido-2,3-dihydrobenzo[d]isothiazol-5-yl)amino)-4-oxo-4,5-dihydro-1H-pyrazolo[4,3-c]pyridin-1-yl)-5-(cyanomethyl)tetrahydro-2H-pyran-2-carboxylate] | 1.6 nM
CC(C)(C)N1Cc2cc(Nc3nn([C@@]4(CC#N)CCOC[C@H]4F)c4cc[nH]c(=O)c34)ccc2C1=O (single isomer, unassigned) [Example 5-260, 2-((3S,4S or 3R,4R)-4-(3-(2-tert-butyl-1-oxoisoindolin-5-ylamino)-4-oxo-4,5-dihydropyrazolo[4,3-c]pyridin-1-yl)-3-fluoro-tetrahydro-2H-pyran-4-yl)acetonitrile] | 0.26 nM

Continued by falling IC50, values first:

IC50 | SMILES
0.15 nM | CC(C)NS(=O)(=O)c1ccc(Nc2nn(C3(CC#N)CCN(C(=O)OC(C)(C)C)CC3)c3cc[nH]c(=O)c23)cc1 [Example 5-288, tert-butyl 4-(cyanomethyl)-4-(3-((4-(N-isopropylsulfamoyl)phenyl)amino)-4-oxo-4,5-dihydro-1H-pyrazolo[4,3-c]pyridin-1-yl)piperidine-1-carboxylate]
0.13 nM | Cc1cc(Nc2nn([C@]3(CC#N)CC[C@@H](C(=O)OC(C)(C)C)OC3)c3cc[nH]c(=O)c23)ccc1C(=O)N1CCSCC1 [Example 20-6, (2S,5S)-tert-butyl 5-(cyanomethyl)-5-(3-((3-methyl-4-(thiomorpholine-4-carbonyl)phenyl)amino)-4-oxo-4,5-dihydro-1H-pyrazolo[4,3-c]pyridin-1-yl)tetrahydro-2H-pyran-2-carboxylate]
0.12 nM | CC(C)S(=N)(=O)c1ccc(Nc2nn([C@]3(CC#N)CC[C@@H](C(=O)OC(C)(C)C)OC3)c3cc[nH]c(=O)c23)cc1 (single isomer, unassigned) [Example 5-230, (2S,5S)-tert-butyl 5-(cyanomethyl)-5-(4-oxo-3-((4-(propan-2-yl-(S or R)-sulfonimidoyl)phenyl)amino)-4,5-dihydro-1H-pyrazolo[4,3-c]pyridin-1-yl)tetrahydro-2H-pyran-2-carboxylate]
0.09 nM | CC(C)(C)OC(=O)[C@@H]1CC[C@@](CC#N)(n2nc(Nc3ccc4c(c3)CN(C(C)(C)C)S4(=O)=O)c3c(=O)[nH]ccc32)CO1 [Example 5-41, (2S,5S)-tert-butyl 5-(3-((2-(tert-butyl)-1,1-dioxido-2,3-dihydrobenzo [d]isothiazol-5-yl)amino)-4-oxo-4,5-dihydro-1H-pyrazolo[4,3-c]pyridin-1-yl)-5-(cyanomethyl) tetrahydro-2H-pyran-2-carboxylate]
0.07 nM | CC(C)(C)OC(=O)[C@@H]1CC[C@@](CC#N)(n2nc(Nc3ccc4c(c3)NC(=O)C4(C)C)c3c(=O)[nH]ccc32)CO1 [Example 21-3, (2S,5S)-tert-butyl 5-(cyanomethyl)-5-(3-((3,3-dimethyl-2-oxoindolin-6-yl)amino)-4-oxo-4,5-dihydro-1H-pyrazolo[4,3-c]pyridin-1-yl)tetrahydro-2H-pyran-2-carboxylate]
0.07 nM | CC1(C)Cc2cc(Nc3nn([C@]4(CC#N)CCCOC4)c4cc[nH]c(=O)c34)ccc2C1(O)C(F)(F)F (single isomer, unassigned) [Example 5-120, 2-((S)-3-(3-((S or R)-1-hydroxy-2,2-dimethyl-1-(trifluoromethyl)-2,3-dihydro-1H-inden-5-yl)amino)-4-oxo-4,5-dihydro-1H-pyrazolo[4,3-c]pyridin-1-yl)tetrahydro-2H-pyran-3-yl)acetonitrile]
0.04 nM | CC(C)(C)N1Cc2cc(Nc3nn([C@]4(CC#N)CCCOC4)c4cc[nH]c(=O)c34)ccc2S1(=O)=O [Example 5-178, [(3S)-3-{3-[(2-tert-butyl-1,1-dioxido-2,3-dihydro-1,2-benzisothiazol-5-yl)amino]-4-oxo-4,5-dihydro-1H-pyrazolo[4,3-c]pyridin-1-yl}tetrahydro-2H-pyran-3-yl] acetonitrile]
